What was measured:
[1] = Aqueous solubility (nephelometric method); type: physicochemical; conditions: at 100 μM
Experimental: Solutions of the test compound were prepared from DMSO stock solution at the specified test concentrations. The solutions were mixed thoroughly and aliquoted into a 384-well plate, incubated for 1 hour at 37° C., and the degree of light scattering in each solution was measured at 635 nm using a laser-based microplate nephelometer. The mean nephelometric reading at each concentration was calculated and compared to that of the blank solution and a positive control (a solution of latex at a minimum concentration sufficient to give a mean reading higher than that of blank solution, as determined by a calibration curve). The compound was judged to be soluble at a specific concentration if the mean reading was less than the reading of the positive control. In cases where the mean reading was greater than or equal to the positive control, the solution was reported as having a precipitate and a percent precipitation value was calculated using the following formula: % precipitation=(mean test compound−mean blank)/(mean positive control−mean blank)×100

human spermatozoa = assay: Intracellular free calcium in Fluo-4 loaded spermatozoa; type: cell-based
Experimental: A series of experiments was performed to determine the mechanism of action of the compounds described herein. The experiments were carried out as described in O'Rand and Widgren, “Loss of Calcium in Human Spermatozoa via EPPIN, the Semenogelin Receptor,” Biology of Reproduction, (2012) 86(2):55, 1-7.
Fluo-4 AM-loaded spermatozoa were pipetted into 96-well black-walled plates (Perkin Elmer, Waltham, Mass.) at 1.13105-0.93105 spermatozoa/well in 50 μl of M16M at 378 C, and read in a BioTek (Winookski, Vt.) Synergy2 Multiplatform automated plate reader (with heater and shaker). Wells were excited using a 485/20 filter, and emission was read with a 528/20 filter, and data were acquired using a kinetic modification of the Alexafluor 488 protocol in the Gen5 software program (BioTek). […] After treatment of spermatozoa in each well with control or test reagents was completed (10-15 min), the Fluo-4 in the spermatozoa in each well was calibrated by adding ionomycin (2.5 μM), followed 15 min later by the addition of Mn^2 (2 mM MnCl2) to bring the fluorescence (F) to 30% of that of the saturated dye. […] Using these values for each well, the Fmax and Fmin were calculated according to the method of Kao et al. [Kao et al., J Biol Chem. 1989; 264:8179-8184.].
Fluorescence measurements were converted to calcium concentration according to the equation [Ca^2+]=Kd([F−Fmin]/[Fmax−F]) […]

solubility [1]: Good
SMILES: CCOC(=O)CSc1nc(NNC(=O)OC)nc(Nc2ccc(NC(=O)OC)c(O)c2)n1 [TZ4_121, [4-(3-Hydroxy-4-methoxycarbonylamino-phenylamino)-6-(N′methoxycarbonyl-hydrazino)-1,3,5-triazin-2-ylsulfanyl]-acetic acid ethyl ester]
change in intracellular calcium of spermatozoa (human spermatozoa): significant loss of calcium

Reference: US10472334B2, “Small molecules for inhibiting male fertility” (The University of North Carolina at Chapel Hill, priority 2014, dated 2019)
